Data as given in patent publication US20230139056A1, “METHODS, COMPOSITIONS AND REAGENTS FOR PREPARING COMPOUNDS” (Regents of the University of Minnesota, priority 2021, published 2023).

Biological target: T1, SyrB2 halogenase (Pseudomonas syringae pv. syringae, UniProt Q9RBY6)
T1 construct: His-tag (inferred from the pET-28a(+) vector and Ni HisTrap purification); made in house; host or cells: E. coli BL21-Gold (DE3)
Experiment: Fluorination assay of Thr by SyrB2 halogenase with ligator (LC-MS/MS)
Assay type: biochemical
Protocol: In an anaerobic glovebag (98% N2/2% H2, Coy Laboratories), all plasticware, solutions, and solids were allowed to equilibrate overnight before use. Stock solutions of RXN buffer (20 mM HEPES, pH=7.5), 20G (100 mM in RXN buffer, pH=7.5), NOG (150 mM in RXN buffer, pH=7.5), and Milli-Q water were degassed using a vacuum manifold on a Schlenk Line apparatus. At least three cycles of vacuum and subsequent equilibration with Argon gas were performed before transfer to the glovebag. Halide Salts (NaCl, NaF) and ferrous ammonium sulfate (FAS) were transferred to the glovebag the day before use.
Stock SyrB1-PPT-Thr and SyrB2 were thawed on ice-water and centrifuged to remove any possible precipitate. Stock proteins were diluted in RXN buffer and transferred to individual ReactiVials (Thermo) sealed with septa on a pre-cooled ReactiBlock (Thermo). Protein was deoxygenated by piercing the ReactiVials with needles and purging the headspace with a continuous flow of Argon gas for 1 hr while continuously stirring the protein solution on ice bath. Reactivials were sealed and transferred to the glovebag. While deoxygenating the protein, halide salts were dissolved in RXN buffer in the glovebag. To individual 1.7 mL tubes, RXN buffer, ligand (NOG or 2OG), and halide (NaCl or NaF) were added and cooled to 4° C. The ReactiVials containing the proteins were sealed and transferred to the glovebag. […]

T1 sequence (Q9RBY6 whole entry): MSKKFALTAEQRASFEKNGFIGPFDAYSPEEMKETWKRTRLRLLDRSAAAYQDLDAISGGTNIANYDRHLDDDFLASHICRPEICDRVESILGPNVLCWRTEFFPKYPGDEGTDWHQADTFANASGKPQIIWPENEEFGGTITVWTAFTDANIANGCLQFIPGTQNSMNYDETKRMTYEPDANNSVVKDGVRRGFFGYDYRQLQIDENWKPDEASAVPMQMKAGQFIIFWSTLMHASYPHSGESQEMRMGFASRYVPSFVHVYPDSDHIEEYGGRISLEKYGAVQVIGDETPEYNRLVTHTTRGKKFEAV

In the case of O=C(O)CNC(=O)C(=O)O [NOG, N-oxalylglycine], the “side products (hydroxylated substrates) observed” value (in some of the reaction conditions with ligator) is reported as “little to no side products” and the “fluorination of Thr amino acid by SyrB2 halogenase” value (ligator 1 mM, NaF 10 mM, LC-MS/MS (FIG. 3)) is reported as “enabling fluorination of Thr amino acid”.
